{"source": "patent US20080146555A1", "about": "“Uses of Kinase Inhibitors and Compositions Thereof” (GPC Biotech, Inc, priority 2004, published 2008)", "key": {"[1]": {"system": "Rb phosphorylation at Serine-780", "assay": "Rb phosphorylation", "assay_type": "cell-based"}, "A2780 xenograft": {"system": "A2780 xenograft", "assay": "A2780 xenograft tumor model", "design": "species or system mice", "details": "mouse, in vivo", "description": "(§1) Drugs. Compounds of the invention were synthesized and prepared for i.v. administration in a biocompatible vehicle. CPT-11 (Camptosar®, Pharmacia) was obtained as the pharmaceutical drug and was prepared in 5% dextrose-water (D5W). All preparations were made fresh weekly and injection volumes were adjusted to body weight (0.2 ml/20 g mouse).\n(§2) Mice/Husbandry. Female nu/nu mice were obtained from Charles River, housed in static microisolators, and provided ad libitum with water and an irradiated standard rodent diet (Purina Pico-Lab Rodent Diet 20).\n(§3) Standard Protocol. […] Animals were initially monitored twice weekly for tumor growth and then daily as the implants approached the desired size of approximately 100 mm^3. When the tumors grew to between 62-221 mg in calculated tumor weight, the animals were pair-matched into appropriate experimental treatment groups (8-10 animals/group) and treatment with test compounds was initiated. […] Tumor weights were calculated and body weights were taken twice weekly and animals were observed frequently for adverse drug effects. […]\n(§4) Tumors were measured by determining the length and width of the tumor with a digital caliper. […]\n(§5) Log cell kill (LCK) is a calculation that determines the percentage of tumor cells that are killed after the initiation of treatment and can be used as a quantitative measure of efficacy: […]"}, "PC3 xenograft": {"system": "PC3 xenograft", "assay": "PC3 xenograft tumor model", "design": "species or system mice", "details": "mouse, in vivo", "description": "as §1, §2, §3, §4, §5"}, "CK1 delta": {"biological_target": "T1, CK1 delta (Homo sapiens, UniProt P48730)", "T1 construct": "purchased Upstate 14-520", "T1 sequence (P48730 whole entry)": "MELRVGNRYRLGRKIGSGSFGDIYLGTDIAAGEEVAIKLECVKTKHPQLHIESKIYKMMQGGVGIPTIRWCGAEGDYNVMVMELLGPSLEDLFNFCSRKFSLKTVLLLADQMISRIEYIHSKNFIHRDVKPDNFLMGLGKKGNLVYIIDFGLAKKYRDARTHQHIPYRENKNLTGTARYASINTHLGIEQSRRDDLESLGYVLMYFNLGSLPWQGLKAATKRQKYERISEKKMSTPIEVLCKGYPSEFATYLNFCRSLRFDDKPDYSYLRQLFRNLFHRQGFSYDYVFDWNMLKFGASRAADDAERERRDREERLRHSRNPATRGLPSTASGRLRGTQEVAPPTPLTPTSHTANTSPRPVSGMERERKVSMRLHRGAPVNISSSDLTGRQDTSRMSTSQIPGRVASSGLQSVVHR", "assay": "CK1-Delta kinase assay (B16 assay)", "assay_type": "biochemical"}, "[2]": {"assay": "Maximum tolerated dose in mice", "details": "mouse, in vivo, intravenous", "description": "Determination of maximum tolerated dose (MTD). Mice at 8 weeks of age were pair-matched into groups of 5-8 animals and preliminary toxicity studies were performed with unknown test compounds. Animals were treated i.v. daily for 10 consecutive days with test compound and were weighed twice weekly. Mice were examined frequently for clinical signs of any adverse drug-related effects. Acceptable toxicity for anti-cancer drugs in mice is defined by the NCl as no mean group weight loss of over 20% and not more than 10% toxic death in treated animals."}}, "note": "Where a name gives a salt, the structure may show the parent alone. Read-outs that look alike come from different tables or passages of the source."}
{"smiles": "CC(C)N1CCN(C(=O)COc2ccc(-c3n[nH]c4c3C(=O)c3c(NC(=O)NN5CCOCC5)cccc3-4)cc2)CC1", "note": "[Compound A37]", "values": [{"measurement": "Rb phosphorylation at Serine-780", "setting": "[1]", "value": "inhibits Rb phosphorylation at Serine-780"}, {"measurement": "efficacy in A2780 xenograft tumor model", "setting": "A2780 xenograft", "value": "high efficacy"}, {"measurement": "efficacy in PC3 xenograft tumor model", "setting": "PC3 xenograft", "value": "high efficacy"}]}
{"smiles": "COCCN1CCN(Cc2ccc(-c3n[nH]c4c3C(=O)c3c(NC(=O)NN5CCOCC5)cccc3-4)cc2)CC1", "note": "[Compound B16, N-[3-(4-{[4-(2-methoxyethyl)piperazinyl]methyl}phenyl)-4-oxoindeno[2,3-d]pyrazol-5-yl](morpholin-4-ylamino)carboxamide dihydrochloride]", "values": [{"measurement": "IC50", "setting": "CK1 delta; CK1 delta, read-out: CSNK1A1 (CK1) Inhibition (IC50), B16", "value": "< 50", "unit": "nM"}, {"measurement": "IC50", "setting": "CK1 delta; kinase panel, read-out: CK1 IC50 (B16)", "value": "< 100", "unit": "nM"}, {"measurement": "MTD", "setting": "[2]; CD-1 mice, read-out: MTD, 5/2/5 dose", "value": 40, "unit": "mg/kg"}, {"measurement": "MTD at 5 days", "setting": "[2]; nu/nu mice", "value": "~100", "unit": "mg/kg"}, {"measurement": "MTD", "setting": "[2]; nu/nu mice, read-out: MTD, single dose", "value": "~120", "unit": "mg/kg"}]}
